Source: patent US12374421B2, “Bioinformatic processes for determination of peptide binding” (priority 2013, dated 2025)

Legend:
MHC I molecules = conditions: in vivo; cited from earlier work
RL9-pulsed splenocytes = tested on: RL9-pulsed splenocytes; set-up: species or system mice; conditions: mouse, in vivo

## RYCINSASL (SEQ ID NO: 28419) [RL9]
MHC I molecules
  MHC I presentation: presented on MHC I molecules
RL9-pulsed splenocytes
  response pattern after immunization: protective response pattern
